Assay results published in US20200039918A1, “METHOD FOR PREPARING SINGLE CRYSTAL OF ANHYDROUS HALOGENATED CHOLINE OR DERIVATIVE THEREOF” (HEBEI UNIVERSITY OF SCIENCE AND TECHNOLOGY, priority 2017, published 2020).

How the values were obtained:
[1] = water absorption and agglomeration after being placed in the air for 24 hours; format: physicochemical
[2] = TG
Description: The crystal structure and thermal stability of anhydrous choline chloride single crystal product obtained in Experiment example 1 were analyzed, respectively.

Row | SMILES | agglomeration [1] | water absorption amount [1] | initial temperature of thermal cracking ([2]; FIG. 5) | temperature at which the weight loss rate reaches the maximum ([2]; FIG. 5) | thermal stability (comparison in words) ([2]; versus commercial product) | temperature at which weight loss began ([2]; weight loss ascribed to evaporation of water)
1 | CCC(=O)OCC[N+](C)(C)C.[Br-] [propionylcholine bromide] | not agglomerated | 0.77 wt % | – | – | – | –
2 | CCC(=O)OCC[N+](C)(C)C.[Cl-] [propionylcholine chloride] | not agglomerated | 1.06 wt % | – | – | – | –
3 | C[N+](C)(C)CCO.[Cl-] [choline chloride] | not agglomerated | 2.58 wt % | 350 °C | 370 °C | better than that of commercial choline chloride | 330 °C
4 | C[N+](C)(C)CCO.[I-] [anhydrous choline iodide single crystal, choline iodide] | not agglomerated | 2.30 wt % | – | – | – | –
5 | CC(=O)OCC[N+](C)(C)C.[Cl-] [acetylcholine chloride] | not agglomerated | 1.58 wt % | – | – | – | –
